Measured values: PubChem BioAssay (NCI)
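Compound exposure: 48 hours, 5 concentrations, 96-well plates. At the GI50, growth is halved. TGI is the concentration that stops growth completely.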

Experiments:
Test in all cases: DTP human tumour cell line panel, 48 h
IGROV1 ovarian = system: IGROV1 ovarian
DMS 114 small cell lung = system: DMS 114 small cell lung
SW-620 colon = system: SW-620 colon
SK-MEL-5 melanoma = system: SK-MEL-5 melanoma
RXF 393 renal = system: RXF 393 renal
SNB-78 CNS = system: SNB-78 CNS
K-562 leukemia = system: K-562 leukemia
SK-MEL-28 melanoma = system: SK-MEL-28 melanoma
SK-OV-3 ovarian = system: SK-OV-3 ovarian
SR leukemia = system: SR leukemia

Row | Structure (SMILES) | TGI (IGROV1 ovarian) | TGI (DMS 114 small cell lung) | TGI (SW-620 colon) | TGI (SK-MEL-5 melanoma) | TGI (RXF 393 renal) | TGI (SNB-78 CNS) | TGI (K-562 leukemia) | TGI (SK-MEL-28 melanoma) | TGI (SK-OV-3 ovarian) | TGI (SR leukemia) | GI50 (IGROV1 ovarian) | GI50 (SW-620 colon) | GI50 (SR leukemia) | GI50 (SK-MEL-5 melanoma) | GI50 (RXF 393 renal) | GI50 (K-562 leukemia) | GI50 (SK-MEL-28 melanoma) | GI50 (SK-OV-3 ovarian)
1 | O=C1c2c(c3c4ccccc4[nH]c3c3[nH]c4ccccc4c23)C(=O)N1Cc1ccccc1 | 18.7 µM | 8.92 µM | 10.9 µM | 3.56 µM | 4.12 µM | 9.63 µM | 14.2 µM | 11.7 µM | 9.49 µM | – | – | – | – | – | – | – | – | –
2 | Cc1cc(NS(=O)(=O)c2ccc(Nc3c4ccccc4nc4c(C(=O)Nc5ccc(S(=O)(=O)N=C(N)N)cc5)ccc(Cl)c34)cc2)no1 | – | 68.9 µM | – | > 100 µM | 72.9 µM | 97.7 µM | > 100 µM | > 100 µM | 95.4 µM | 61 µM | – | – | – | – | – | – | – | –
3 | Cc1ccc2c(CC(=O)O)cc(=O)oc2c1 | > 100 µM | > 100 µM | > 100 µM | > 100 µM | > 100 µM | – | > 100 µM | > 100 µM | > 100 µM | – | – | – | – | – | – | – | – | –
4 | COC(=O)C(=O)C(CC(=O)Nc1cccc(C(F)(F)F)c1)C(=O)OC (stereo not given) | > 100 µM | > 100 µM | > 100 µM | > 100 µM | > 100 µM | > 100 µM | > 100 µM | > 100 µM | > 100 µM | – | – | – | – | – | – | – | – | –
5 | O=Nc1c(O)c2ccccc2c2ccccc12 | 3.51 µM | – | 3.19 µM | 1.77 µM | 3.23 µM | – | > 100 µM | 3.07 µM | 6.27 µM | 64.2 µM | 1.83 µM | 1.2 µM | 1.07 µM | 0.56 µM | 1.72 µM | 0.505 µM | 1.68 µM | 2.48 µM
6 | COc1cc2ccc(CC(N)=O)cc2cc1OC | > 100 µM | > 100 µM | > 100 µM | > 100 µM | > 100 µM | > 100 µM | > 100 µM | > 100 µM | > 100 µM | – | – | – | – | – | – | – | – | –
7 | CCOP(=O)(CC(=O)C1=C(O)C(CCCCNC(=O)OC(C)(C)C)N(Cc2ccccc2)C1=O)OCC (stereo not given) | > 100 µM | > 100 µM | – | > 100 µM | > 100 µM | – | > 100 µM | > 100 µM | > 100 µM | > 100 µM | – | – | – | – | – | – | – | –
8 | NC(CO)C(=O)NCC(=O)O (stereo not given) | > 100 µM | – | > 100 µM | > 100 µM | > 100 µM | – | > 100 µM | > 100 µM | > 100 µM | > 100 µM | – | – | – | – | – | – | – | –
9 | CCN(Cc1cccc(F)c1F)c1ccc(CO)c(Cl)c1 | 0.335 µM | – | 18.1 µM | 23.4 µM | 14.9 µM | – | 29.3 µM | 30.1 µM | 27.4 µM | 43.7 µM | 0.0668 µM | 0.554 µM | 18.8 µM | 11.2 µM | 1.89 µM | 0.683 µM | 14 µM | 8.3 µM
10 | NCCN1C(=O)c2ccccc2C1(O)c1ccc(Cl)cc1 (stereo not given) | 41 µM | – | 36.6 µM | 31.3 µM | 55.8 µM | – | 39 µM | 33.2 µM | 81.1 µM | 36.6 µM | – | – | – | – | – | – | – | –
11 | Oc1ccccc1C=Nc1ccccc1N=Cc1ccccc1O.[Cu+2] | 20.1 µM | – | 24.4 µM | 3.46 µM | 26.6 µM | – | > 100 µM | 23.2 µM | 18.3 µM | > 100 µM | 3.27 µM | 10.6 µM | 13.2 µM | 1.66 µM | 13.2 µM | 4.44 µM | 10.5 µM | 5.23 µM
